The values below come from ChEMBL document CHEMBL4507319 (2021).

What all share (settings): Compound concentration 1000.0 nM
For assay [1], the system named is Tyrosine-protein kinase ABL1 (Homo sapiens), P00519 [M351T].
The target in assay [2] is T1, Mitogen-activated protein kinase kinase kinase 5 (Homo sapiens) (UniProt Q99683).
T1 sequence (whole entry): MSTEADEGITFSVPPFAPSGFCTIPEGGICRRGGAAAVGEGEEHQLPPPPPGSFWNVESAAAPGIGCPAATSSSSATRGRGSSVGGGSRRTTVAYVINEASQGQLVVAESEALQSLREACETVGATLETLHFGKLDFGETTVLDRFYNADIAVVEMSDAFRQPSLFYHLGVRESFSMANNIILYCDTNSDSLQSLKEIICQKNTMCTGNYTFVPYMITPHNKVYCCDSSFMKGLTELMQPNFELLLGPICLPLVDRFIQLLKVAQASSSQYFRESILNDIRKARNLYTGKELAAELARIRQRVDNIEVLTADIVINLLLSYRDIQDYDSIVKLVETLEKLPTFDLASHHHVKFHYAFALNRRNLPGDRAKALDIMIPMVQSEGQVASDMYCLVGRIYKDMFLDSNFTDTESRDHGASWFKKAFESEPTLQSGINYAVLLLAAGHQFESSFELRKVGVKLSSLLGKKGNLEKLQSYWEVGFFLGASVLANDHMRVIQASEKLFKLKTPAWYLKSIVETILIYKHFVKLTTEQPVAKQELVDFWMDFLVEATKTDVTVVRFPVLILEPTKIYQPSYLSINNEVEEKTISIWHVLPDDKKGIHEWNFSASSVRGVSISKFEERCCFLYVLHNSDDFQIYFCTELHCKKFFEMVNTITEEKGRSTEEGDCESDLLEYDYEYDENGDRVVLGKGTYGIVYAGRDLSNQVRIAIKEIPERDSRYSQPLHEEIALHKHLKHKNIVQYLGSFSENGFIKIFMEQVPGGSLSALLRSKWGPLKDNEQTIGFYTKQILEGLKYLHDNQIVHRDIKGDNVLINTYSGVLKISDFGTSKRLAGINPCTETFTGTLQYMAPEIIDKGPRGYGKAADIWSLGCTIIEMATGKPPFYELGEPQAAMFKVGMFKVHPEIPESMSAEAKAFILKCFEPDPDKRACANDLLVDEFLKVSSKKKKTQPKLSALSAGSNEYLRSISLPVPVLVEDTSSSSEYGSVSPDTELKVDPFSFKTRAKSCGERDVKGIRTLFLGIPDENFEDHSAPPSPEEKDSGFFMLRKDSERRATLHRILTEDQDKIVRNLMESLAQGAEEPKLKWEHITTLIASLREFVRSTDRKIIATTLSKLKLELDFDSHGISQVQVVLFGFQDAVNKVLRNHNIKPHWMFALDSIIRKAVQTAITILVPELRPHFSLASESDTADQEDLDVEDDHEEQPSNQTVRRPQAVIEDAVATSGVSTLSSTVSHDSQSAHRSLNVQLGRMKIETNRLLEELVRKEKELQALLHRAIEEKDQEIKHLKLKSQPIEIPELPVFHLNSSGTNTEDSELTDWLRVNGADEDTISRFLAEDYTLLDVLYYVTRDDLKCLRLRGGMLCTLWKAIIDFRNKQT

Assay [3] deals with Serine/threonine-protein kinase Chk2 (Homo sapiens) (UniProt O96017).
The target of assay [4] is Serine/threonine-protein kinase MRCK gamma (Homo sapiens) (UniProt Q6DT37).
Assay [5] concerns the target T2, Ephrin type-A receptor 3 (Homo sapiens) (UniProt P29320).
T2 sequence (whole entry): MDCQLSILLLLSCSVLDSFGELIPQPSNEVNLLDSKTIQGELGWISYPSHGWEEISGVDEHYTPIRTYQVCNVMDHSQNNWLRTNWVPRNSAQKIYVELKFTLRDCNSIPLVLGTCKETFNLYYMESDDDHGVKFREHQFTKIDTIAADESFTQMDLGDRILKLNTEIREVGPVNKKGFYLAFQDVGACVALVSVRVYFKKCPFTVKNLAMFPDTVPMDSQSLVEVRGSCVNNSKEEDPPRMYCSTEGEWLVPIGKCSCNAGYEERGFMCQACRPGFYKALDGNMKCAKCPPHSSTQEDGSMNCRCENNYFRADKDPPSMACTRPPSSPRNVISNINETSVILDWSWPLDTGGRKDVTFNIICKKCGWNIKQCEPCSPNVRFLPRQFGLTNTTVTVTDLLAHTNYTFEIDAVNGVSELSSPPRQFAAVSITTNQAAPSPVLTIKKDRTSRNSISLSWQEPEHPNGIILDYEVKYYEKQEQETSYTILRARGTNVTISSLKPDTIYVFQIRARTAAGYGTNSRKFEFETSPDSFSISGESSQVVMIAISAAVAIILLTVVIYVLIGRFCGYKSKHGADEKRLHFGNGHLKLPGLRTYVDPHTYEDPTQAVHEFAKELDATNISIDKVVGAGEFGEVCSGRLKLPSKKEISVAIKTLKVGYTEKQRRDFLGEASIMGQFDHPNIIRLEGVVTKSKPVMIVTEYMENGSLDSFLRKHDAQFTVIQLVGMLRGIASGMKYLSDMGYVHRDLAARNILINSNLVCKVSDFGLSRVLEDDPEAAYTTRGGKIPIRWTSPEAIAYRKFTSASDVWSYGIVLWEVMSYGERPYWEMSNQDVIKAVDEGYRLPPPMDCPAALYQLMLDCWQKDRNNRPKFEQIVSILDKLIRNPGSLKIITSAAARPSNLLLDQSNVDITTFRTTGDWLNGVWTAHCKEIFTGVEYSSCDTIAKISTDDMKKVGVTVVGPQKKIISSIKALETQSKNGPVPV

Assay [6] has as its target Ephrin type-A receptor 6 (Homo sapiens) (UniProt Q9UF33).
Assay [7] relates to Receptor-type tyrosine-protein kinase FLT3 (Homo sapiens), P36888 [N841I].
Assay [8] relates to Phosphatidylinositol 4,5-bisphosphate 3-kinase catalytic subunit alpha isoform (Homo sapiens), P42336 [I800L].
The target in assay [9] is Serine/threonine-protein kinase pim-2 (Homo sapiens) (UniProt Q9P1W9).
Assay [10] has as its target Phosphatidylinositol 5-phosphate 4-kinase type-2 gamma (Homo sapiens) (UniProt Q8TBX8).
Assay [11] concerns the target Proto-oncogene tyrosine-protein kinase receptor Ret (Homo sapiens) (UniProt P07949).
Assay [12] addresses Proto-oncogene tyrosine-protein kinase ROS (Homo sapiens) (UniProt P08922).
Assay [13] addresses Vascular endothelial growth factor receptor 2 (Homo sapiens) (UniProt P35968).

Structures are written as SMILES.

Chain of Serine/threonine-protein kinase Chk2 (Homo sapiens) (O96017 whole entry): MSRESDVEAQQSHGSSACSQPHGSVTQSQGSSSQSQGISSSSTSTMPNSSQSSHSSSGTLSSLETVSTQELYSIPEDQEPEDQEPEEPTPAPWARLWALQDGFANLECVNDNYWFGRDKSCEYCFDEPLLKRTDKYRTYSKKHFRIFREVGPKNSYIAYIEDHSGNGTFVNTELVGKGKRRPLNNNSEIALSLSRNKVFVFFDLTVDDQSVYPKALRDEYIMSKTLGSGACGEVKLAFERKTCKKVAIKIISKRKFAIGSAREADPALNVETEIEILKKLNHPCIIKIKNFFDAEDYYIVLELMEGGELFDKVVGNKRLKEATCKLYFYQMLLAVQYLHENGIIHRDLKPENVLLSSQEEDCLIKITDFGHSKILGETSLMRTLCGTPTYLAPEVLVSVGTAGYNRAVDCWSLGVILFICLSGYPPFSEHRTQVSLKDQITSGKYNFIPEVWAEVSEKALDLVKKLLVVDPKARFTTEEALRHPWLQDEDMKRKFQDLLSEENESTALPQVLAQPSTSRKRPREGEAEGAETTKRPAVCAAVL
Chain of Vascular endothelial growth factor receptor 2 (Homo sapiens) (P35968 whole entry): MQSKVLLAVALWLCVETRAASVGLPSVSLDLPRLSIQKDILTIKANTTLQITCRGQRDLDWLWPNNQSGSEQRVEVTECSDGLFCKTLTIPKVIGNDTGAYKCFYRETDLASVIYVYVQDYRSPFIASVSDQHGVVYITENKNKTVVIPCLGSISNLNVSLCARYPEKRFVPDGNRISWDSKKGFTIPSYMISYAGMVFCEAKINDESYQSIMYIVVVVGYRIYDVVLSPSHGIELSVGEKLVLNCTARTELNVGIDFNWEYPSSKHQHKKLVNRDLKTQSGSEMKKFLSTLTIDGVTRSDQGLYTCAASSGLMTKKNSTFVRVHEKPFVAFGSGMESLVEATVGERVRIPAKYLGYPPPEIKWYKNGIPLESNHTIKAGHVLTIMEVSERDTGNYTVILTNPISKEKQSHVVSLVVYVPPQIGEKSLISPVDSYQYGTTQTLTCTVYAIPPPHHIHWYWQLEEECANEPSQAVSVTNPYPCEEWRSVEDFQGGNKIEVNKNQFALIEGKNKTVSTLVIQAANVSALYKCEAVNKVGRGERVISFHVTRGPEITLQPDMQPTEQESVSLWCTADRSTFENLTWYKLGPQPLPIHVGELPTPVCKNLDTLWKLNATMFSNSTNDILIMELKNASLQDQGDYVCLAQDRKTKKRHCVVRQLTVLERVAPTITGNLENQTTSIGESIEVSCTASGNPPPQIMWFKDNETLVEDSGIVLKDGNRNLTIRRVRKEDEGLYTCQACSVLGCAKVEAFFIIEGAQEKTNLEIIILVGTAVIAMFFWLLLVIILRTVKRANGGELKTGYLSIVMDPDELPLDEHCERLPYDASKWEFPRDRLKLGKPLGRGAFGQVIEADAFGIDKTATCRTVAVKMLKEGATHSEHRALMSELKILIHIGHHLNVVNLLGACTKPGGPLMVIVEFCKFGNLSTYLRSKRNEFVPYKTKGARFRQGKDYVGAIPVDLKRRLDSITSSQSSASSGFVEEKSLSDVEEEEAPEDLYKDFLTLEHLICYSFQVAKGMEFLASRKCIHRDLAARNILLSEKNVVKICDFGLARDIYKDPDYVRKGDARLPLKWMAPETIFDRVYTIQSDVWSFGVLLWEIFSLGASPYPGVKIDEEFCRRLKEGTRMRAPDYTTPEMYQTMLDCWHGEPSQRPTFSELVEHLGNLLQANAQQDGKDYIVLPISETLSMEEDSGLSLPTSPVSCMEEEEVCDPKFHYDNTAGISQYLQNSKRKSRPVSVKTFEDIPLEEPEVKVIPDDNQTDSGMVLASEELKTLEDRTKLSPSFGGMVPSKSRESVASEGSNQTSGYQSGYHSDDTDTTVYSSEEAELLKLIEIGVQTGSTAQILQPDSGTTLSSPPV
Chain of Serine/threonine-protein kinase pim-2 (Homo sapiens) (Q9P1W9 whole entry, looked up): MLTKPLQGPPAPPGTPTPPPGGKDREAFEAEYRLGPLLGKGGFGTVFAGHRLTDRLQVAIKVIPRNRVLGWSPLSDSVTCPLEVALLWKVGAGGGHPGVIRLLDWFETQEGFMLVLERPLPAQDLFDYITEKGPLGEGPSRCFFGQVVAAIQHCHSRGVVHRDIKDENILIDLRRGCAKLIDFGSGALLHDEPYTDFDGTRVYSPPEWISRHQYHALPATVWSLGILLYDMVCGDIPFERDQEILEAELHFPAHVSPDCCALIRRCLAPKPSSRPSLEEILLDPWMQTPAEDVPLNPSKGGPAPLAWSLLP
Chain of Proto-oncogene tyrosine-protein kinase receptor Ret (Homo sapiens) (P07949 whole entry): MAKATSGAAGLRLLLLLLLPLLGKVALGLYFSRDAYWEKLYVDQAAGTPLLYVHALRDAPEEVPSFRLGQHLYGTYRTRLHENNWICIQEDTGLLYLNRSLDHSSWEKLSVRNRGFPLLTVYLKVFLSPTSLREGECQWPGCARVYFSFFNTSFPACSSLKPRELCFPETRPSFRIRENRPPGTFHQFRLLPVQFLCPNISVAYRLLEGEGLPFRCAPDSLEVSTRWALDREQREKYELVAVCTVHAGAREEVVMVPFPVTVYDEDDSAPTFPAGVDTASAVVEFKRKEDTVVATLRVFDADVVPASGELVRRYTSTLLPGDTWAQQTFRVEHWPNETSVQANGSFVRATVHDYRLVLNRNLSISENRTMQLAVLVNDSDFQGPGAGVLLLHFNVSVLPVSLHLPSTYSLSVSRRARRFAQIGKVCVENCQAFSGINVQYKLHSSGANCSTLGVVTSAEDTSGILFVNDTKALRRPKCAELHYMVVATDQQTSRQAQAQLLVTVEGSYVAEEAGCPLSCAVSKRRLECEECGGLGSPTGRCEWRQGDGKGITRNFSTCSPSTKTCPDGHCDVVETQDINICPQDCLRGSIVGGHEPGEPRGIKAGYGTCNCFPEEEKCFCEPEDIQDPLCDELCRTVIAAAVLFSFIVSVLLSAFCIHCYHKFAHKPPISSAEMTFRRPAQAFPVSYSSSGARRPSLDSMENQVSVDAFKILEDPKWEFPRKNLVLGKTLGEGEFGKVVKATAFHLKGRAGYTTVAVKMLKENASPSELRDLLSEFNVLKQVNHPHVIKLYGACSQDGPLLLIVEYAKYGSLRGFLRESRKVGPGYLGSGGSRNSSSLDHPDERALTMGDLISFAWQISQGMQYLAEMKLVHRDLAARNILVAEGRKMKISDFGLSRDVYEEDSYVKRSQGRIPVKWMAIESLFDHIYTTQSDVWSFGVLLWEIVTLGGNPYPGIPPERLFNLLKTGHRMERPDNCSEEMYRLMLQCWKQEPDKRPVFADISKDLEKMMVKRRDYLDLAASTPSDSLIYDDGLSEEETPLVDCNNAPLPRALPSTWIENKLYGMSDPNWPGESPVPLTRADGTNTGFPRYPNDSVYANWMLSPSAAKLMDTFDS
Chain of Serine/threonine-protein kinase MRCK gamma (Homo sapiens) (Q6DT37 whole entry): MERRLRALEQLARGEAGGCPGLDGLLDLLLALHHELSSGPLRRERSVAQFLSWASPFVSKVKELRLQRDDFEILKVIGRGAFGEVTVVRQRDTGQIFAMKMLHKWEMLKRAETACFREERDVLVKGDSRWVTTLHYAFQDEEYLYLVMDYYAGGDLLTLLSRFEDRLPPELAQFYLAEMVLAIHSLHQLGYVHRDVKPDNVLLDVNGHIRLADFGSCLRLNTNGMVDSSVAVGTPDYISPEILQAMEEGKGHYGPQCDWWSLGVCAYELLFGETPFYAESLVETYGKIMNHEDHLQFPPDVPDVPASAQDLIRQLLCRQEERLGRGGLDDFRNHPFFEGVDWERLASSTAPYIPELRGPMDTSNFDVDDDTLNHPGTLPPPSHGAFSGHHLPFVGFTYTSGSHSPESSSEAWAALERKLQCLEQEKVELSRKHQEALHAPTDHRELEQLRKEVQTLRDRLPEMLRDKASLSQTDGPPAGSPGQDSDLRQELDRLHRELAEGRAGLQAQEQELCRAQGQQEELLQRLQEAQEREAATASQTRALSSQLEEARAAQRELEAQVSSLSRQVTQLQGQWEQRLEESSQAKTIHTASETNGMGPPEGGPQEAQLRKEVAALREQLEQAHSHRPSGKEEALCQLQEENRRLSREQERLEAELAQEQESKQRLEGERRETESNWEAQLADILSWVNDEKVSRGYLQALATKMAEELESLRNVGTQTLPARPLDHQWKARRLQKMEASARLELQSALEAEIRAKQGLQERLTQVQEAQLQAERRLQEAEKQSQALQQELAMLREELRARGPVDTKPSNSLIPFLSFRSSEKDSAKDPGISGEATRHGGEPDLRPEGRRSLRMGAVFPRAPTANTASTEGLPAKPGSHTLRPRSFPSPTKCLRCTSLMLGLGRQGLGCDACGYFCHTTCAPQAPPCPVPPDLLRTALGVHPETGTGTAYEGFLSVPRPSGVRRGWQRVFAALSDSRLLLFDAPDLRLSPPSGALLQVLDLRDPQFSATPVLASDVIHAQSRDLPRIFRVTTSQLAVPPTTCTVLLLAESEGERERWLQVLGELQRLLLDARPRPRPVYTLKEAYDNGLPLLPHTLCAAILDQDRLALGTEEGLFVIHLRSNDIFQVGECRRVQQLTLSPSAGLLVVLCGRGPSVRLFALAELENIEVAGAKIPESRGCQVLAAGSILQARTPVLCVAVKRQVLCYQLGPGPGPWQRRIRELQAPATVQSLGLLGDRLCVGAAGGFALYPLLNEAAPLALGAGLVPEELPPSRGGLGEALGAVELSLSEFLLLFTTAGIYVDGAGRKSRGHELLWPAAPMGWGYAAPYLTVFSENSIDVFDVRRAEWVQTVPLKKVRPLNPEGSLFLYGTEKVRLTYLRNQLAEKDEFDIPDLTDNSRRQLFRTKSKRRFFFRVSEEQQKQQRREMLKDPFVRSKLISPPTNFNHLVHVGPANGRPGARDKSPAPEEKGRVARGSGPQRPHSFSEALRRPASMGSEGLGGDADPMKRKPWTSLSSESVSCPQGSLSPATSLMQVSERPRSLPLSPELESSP

`CC1=C(C#N)C(c2ccc3c(c2)c(NC(=O)c2ccccc2C)nn3C)C(C#N)=C(C)N1` [BAY-974]: the residual activity in assay [1] was 94%; in [2], 89%; in assay [3], 74%; in [4] it was 92%; in assay [5] it was 99%; in assay [6] it was 89%. In addition, the residual activity in assay [7] is 74%; in [8], 93%; in [9] it was 91%; in [10], 92%; in assay [11], 97%; in assay [12], 100%. The residual activity in assay [13] was 80%.
As for `CCc1ccccc1C(=O)Nc1n[nH]c2c(C)c(F)c(C3C(C#N)=C(C)N(C)C(C)=C3C#N)cc12` [BAY-3827], the residual activity in [1] was 99%; in assay [2], 100%; in assay [3], 70%; in assay [4] it was 93%; in assay [5], 100%; in assay [6] it was 57%. The residual activity in assay [7] is 0%; in assay [8], 100%; in assay [9], 99%; in [10] it was 77%; in assay [11] it was 65%; in assay [12], 98%. In addition, the residual activity in [13] was 88%.
